Laboratory results taken from patent publication US9561231B2 (AbbVie Inc., priority 2012, dated 2017).
Read-outs that look alike come from different tables or passages of the source.

Columns and labels:
[1] = biological target: T1, second (BD2: amino acids E352-E168) bromodomain of BRD4 (Homo sapiens, UniProt O60885); assay: TR-FRET bromodomain binding assay, BRD4 BD2; conditions: Ki calculated from IC50, probe Kd and probe concentration, read-out: TR-FRET Binding Ki: BRD4 (BDII_E352-M457)
T1 construct: protocol
Summary of the method: (§1)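 TR-FRET probe competition, His-tagged bromodomain, Alexa647-labeled BET-inhibitor tracer. Ki from IC50 via probe Kd.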

[2] = biological target: T2, first (BD1: amino acids K57-E168) bromodomain of BRD4 (Homo sapiens, UniProt O60885); assay: TR-FRET bromodomain binding assay, BRD4 BD1; conditions: Ki calculated from IC50, probe Kd and probe concentration, read-out: TR-FRET Binding Ki: BRD4 (BDI_K57-E168)
T2 construct: His-tagged first (BD1: amino acids K57-E168)
Summary of the method: as §1

[3] = TR-FRET assay protocol (A-G, compound concentration range)
[4] = TR-FRET assay protocol (D, E or G) per compound

| Ki [1, 3] [nM] | Ki [2, 3] [nM] | Ki [1, 4] [nM] | Ki [2, 4] [nM] | SMILES |
| --- | --- | --- | --- | --- |
| 1480 | 3140 |  |  | COC(=O)Cc1ccc(-c2cc(=O)n(C)nc2-c2ccccc2Oc2ccccc2)cc1 [Example 189, methyl{4-[1-methyl-6-oxo-3-(2-phenoxyphenyl)-1,6-dihydropyridazin-4-yl]phenyl}acetate] |
| 17800 | 8590 |  |  | Cn1nc(-c2ccccc2Oc2ccc(S(C)(=O)=O)cc2)ccc1=O [Example 8, 2-methyl-6-{2-[4-(methylsulfonyl)phenoxy]phenyl}pyridazin-3(2H)-one] |
| 8050 | > 13000 |  |  | CC(=O)c1ccc(F)c(-c2cc(=O)n(C)nc2-c2ccccc2Oc2ccccc2)c1 [Example 132, 5-(5-acetyl-2-fluorophenyl)-2-methyl-6-(2-phenoxyphenyl)pyridazin-3(2H)-one] |
| 17700 | 8120 |  |  | CC(=O)c1cccc(-c2cc(=O)n(C)nc2-c2ccccc2Oc2ccccc2)c1F [Example 124, 5-(3-acetyl-2-fluorophenyl)-2-methyl-6-(2-phenoxyphenyl)pyridazin-3(2H)-one] |
|  |  | 57.1 | 259 | CCOc1cc(=O)n(C)cc1-c1cc(NS(=O)(=O)c2ccc(Cl)cc2Cl)ccc1Oc1ccc(F)cc1F [Example 417, 2,4-dichloro-N-[4-(2,4-difluorophenoxy)-3-(4-ethoxy-1-methyl-6-oxo-1,6-dihydropyridin-3-yl)phenyl]benzenesulfonamide] |
| 12200 | > 13000 |  |  | CCN(CC)S(=O)(=O)c1cccc(-c2cc(=O)n(C)nc2-c2ccccc2Oc2ccccc2)c1 [Example 146, N,N-diethyl-3-[1-methyl-6-oxo-3-(2-phenoxyphenyl)-1,6-dihydropyridazin-4-yl]benzenesulfonamide] |
| 1010 | 1020 |  |  | CC(=O)N1CC=C(c2cc(=O)n(C)nc2-c2ccccc2Oc2ccccc2)CC1 [Example 84, 5-(1-acetyl-1,2,3,6-tetrahydropyridin-4-yl)-2-methyl-6-(2-phenoxyphenyl)pyridazin-3(2H)-one] |
| 971 | 172 |  |  | CCS(=O)(=O)c1ccc(OCC2CC2)c(-c2cc(NS(C)(=O)=O)c(=O)n(C)c2)c1 [Example 339, N-{5-[2-(cyclopropylmethoxy)-5-(ethylsulfonyl)phenyl]-1-methyl-2-oxo-1,2-dihydropyridin-3-yl}methanesulfonamide] |
| 507 | 448 |  |  | Cc1ccc(-c2cc(=O)n(C)nc2-c2ccccc2Oc2ccccc2)cc1N [Example 64, 5-(3-amino-4-methylphenyl)-2-methyl-6-(2-phenoxyphenyl)pyridazin-3(2H)-one] |
|  |  | 567 | 1550 | CCOc1cc(=O)n(C)cc1-c1cc(N)ccc1Oc1ccc(F)cc1F [Example 406, 5-[5-amino-2-(2,4-difluorophenoxy)phenyl]-4-ethoxy-1-methylpyridin-2(1H)-one] |
| > 22200 | > 12600 |  |  | COc1cc(=O)n(C)nc1-c1ccccc1OCCC1CCCCC1 [Example 42, 6-[2-(2-cyclohexylethoxy)phenyl]-5-methoxy-2-methylpyridazin-3(2H)-one] |
| 2330 | 4550 |  |  | Cn1nc(-c2ccccc2Oc2ccccc2)c(C2CCN(S(C)(=O)=O)CC2)cc1=O [Example 90, 2-methyl-5-[1-(methylsulfonyl)piperidin-4-yl]-6-(2-phenoxyphenyl)pyridazin-3(2H)-one] |
| 1530 | 1260 |  |  | CN(C)C(=O)c1cccc(-c2cc(=O)n(C)nc2-c2ccccc2Oc2ccccc2)c1 [Example 109, N,N-dimethyl-3-[1-methyl-6-oxo-3-(2-phenoxyphenyl)-1,6-dihydropyridazin-4-yl]benzamide] |
| 63.1 | 196 |  |  | CCOc1cc(=O)n(C)cc1-c1cc(NS(=O)(=O)c2ccc(Cl)cc2F)ccc1Oc1ccc(F)cc1F [Example 348, 4-chloro-N-[4-(2,4-difluorophenoxy)-3-(4-ethoxy-1-methyl-6-oxo-1,6-dihydropyridin-3-yl)phenyl]-2-fluorobenzenesulfonamide] |
| 3090 | 2010 |  |  | Cn1nc(-c2ccccc2Oc2ccccc2)c(C2CCNCC2)cc1=O [Example 87, 2-methyl-6-(2-phenoxyphenyl)-5-(piperidin-4-yl)pyridazin-3(2H)-one] |
| > 4080 | 1340 |  |  | Cn1nc(-c2ccccc2OC2CCCC2)ccc1=O [Example 4, 6-[2-(cyclopentyloxy)phenyl]-2-methylpyridazin-3(2H)-one] |
| 1970 | 2470 |  |  | CC(C)Oc1ccc(-c2cc(=O)n(C)nc2-c2ccccc2Oc2ccccc2)cc1F [Example 111, 5-[3-fluoro-4-(propan-2-yloxy)phenyl]-2-methyl-6-(2-phenoxyphenyl)pyridazin-3(2H)-one] |

| Ki [1, 3] [nM] | Ki [2, 3] [nM] | Ki [1, 4] [nM] | Ki [2, 4] [nM] | SMILES |
| --- | --- | --- | --- | --- |
| 1830 | 611 |  |  | CCO/C=C\c1cc(=O)n(C)cc1-c1cc(S(C)(=O)=O)ccc1NCC1CC1 [Example 337, 5-{2-[(cyclopropylmethyl)amino]-5-(methylsulfonyl)phenyl}-4-[(Z)-2-ethoxyethenyl]-1-methylpyridin-2(1H)-one] |
| 104 | 195 |  |  | CCOc1cc(=O)n(C)cc1-c1cc(NC(=O)CC(C)(C)C)ccc1Oc1ccc(F)cc1F [Example 296, N-[4-(2,4-difluorophenoxy)-3-(4-ethoxy-1-methyl-6-oxo-1,6-dihydropyridin-3-yl)phenyl]-3,3-dimethylbutanamide] |
| 570 | 916 |  |  | CNC(=O)c1cc(=O)n(C)cc1-c1cc(NS(C)(=O)=O)ccc1Oc1ccc(F)cc1F [Example 276, 5-{2-(2,4-difluorophenoxy)-5-[(methylsulfonyl)amino]phenyl}-N,1-dimethyl-2-oxo-1,2-dihydropyridine-4-carboxamide] |
| > 11100 | > 5670 |  |  | COc1cc(=O)n(C)nc1-c1ccccc1OCc1ccncc1 [Example 45, 5-methoxy-2-methyl-6-[2-(pyridin-4-ylmethoxy)phenyl]pyridazin-3(2H)-one] |
| 411 | 471 |  |  | CN(C)CCCNC(=O)c1ccc(-c2cc(=O)n(C)nc2-c2ccccc2Oc2ccccc2)cc1 [Example 150, N-[3-(dimethylamino)propyl]-4-[1-methyl-6-oxo-3-(2-phenoxyphenyl)-1,6-dihydropyridazin-4-yl]benzamide] |
| 4540 | 3340 |  |  | Cn1nc(-c2ccccc2Oc2ccccc2)c(-c2ccc(S(=O)(=O)N3CCCC3)cc2)cc1=O [Example 178, 2-methyl-6-(2-phenoxyphenyl)-5-[4-(pyrrolidin-1-ylsulfonyl)phenyl]pyridazin-3(2H)-one] |
| 7270 | 6620 |  |  | CN(C)C(=O)c1cc(F)cc(-c2cc(=O)n(C)nc2-c2ccccc2Oc2ccccc2)c1 [Example 152, 3-fluoro-N,N-dimethyl-5-[1-methyl-6-oxo-3-(2-phenoxyphenyl)-1,6-dihydropyridazin-4-yl]benzamide] |
| 1130 | 670 |  |  | CN1CCN(c2ncc(-c3cc(=O)n(C)nc3-c3ccccc3Oc3ccccc3)cn2)CC1 [Example 188, 2-methyl-5-[2-(4-methylpiperazin-1-yl)pyrimidin-5-yl]-6-(2-phenoxyphenyl)pyridazin-3(2H)-one] |
|  |  | 560 | 590 | CCOc1cc(=O)n(C)cc1-c1cc(NS(=O)(=O)CC)ccc1OC1CCN(c2ccc(C(F)(F)F)cc2)CC1 [Example 410, N-[3-(4-ethoxy-1-methyl-6-oxo-1,6-dihydropyridin-3-yl)-4-({1-[4-(trifluoromethyl)phenyl]piperidin-4-yl}oxy)phenyl]ethanesulfonamide] |
| 297 | 526 |  |  | Cn1nc(-c2ccccc2Oc2ccccc2)c(-c2cccc(CN3CCOCC3)c2)cc1=O [Example 141, 2-methyl-5-[3-(morpholin-4-ylmethyl)phenyl]-6-(2-phenoxyphenyl)pyridazin-3(2H)-one] |
| 380 | 511 |  |  | C=CCC(O)c1ccc(-c2cc(=O)n(C)nc2-c2ccccc2Oc2ccccc2)cc1 (stereo not drawn) [Example 77, 5-[4-(1-hydroxybut-3-en-1-yl)phenyl]-2-methyl-6-(2-phenoxyphenyl)pyridazin-3(2H)-one] |
| 159 | 782 |  |  | Cn1nc(-c2ccccc2Oc2ccccc2)c(-c2ccc3c(c2)OCCO3)cc1=O [Example 133, 5-(2,3-dihydro-1,4-benzodioxin-6-yl)-2-methyl-6-(2-phenoxyphenyl)pyridazin-3(2H)-one] |
| 245 | 1510 |  |  | Cn1nc(-c2ccccc2Oc2ccccc2)c(-c2ccc(NCc3ccccc3)nc2)cc1=O [Example 164, 5-[6-(benzylamino)pyridin-3-yl]-2-methyl-6-(2-phenoxyphenyl)pyridazin-3(2H)-one] |
| 41.6 | 94.9 |  |  | CCOc1cc(=O)n(C)cc1-c1cc(NS(=O)(=O)c2ccc(S(C)(=O)=O)cc2)ccc1Oc1ccc(F)cc1F [Example 307, N-[4-(2,4-difluorophenoxy)-3-(4-ethoxy-1-methyl-6-oxo-1,6-dihydropyridin-3-yl)phenyl]-4-(methylsulfonyl)benzenesulfonamide] |
| 15200 | 9870 |  |  | COc1ccc(F)c(-c2cc(=O)n(C)nc2-c2ccccc2Oc2ccccc2)c1 [Example 210, 5-(2-fluoro-5-methoxyphenyl)-2-methyl-6-(2-phenoxyphenyl)pyridazin-3(2H)-one] |
| 117 | 89.8 |  |  | CCn1cc(-c2cc(=O)n(C)nc2-c2ccccc2Oc2ccccc2)cn1 [Example 212, 5-(1-ethyl-1H-pyrazol-4-yl)-2-methyl-6-(2-phenoxyphenyl)pyridazin-3(2H)-one] |
